Experimental data reported in PubChem BioAssay (NCI).
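Method: 48-hour compound exposure of cells in 96-well plates, five concentrations, linear interpolation of endpoints. The concentration for 50% growth inhibition is given as GI50. TGI: concentration producing complete growth inhibition.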

Key:
Assay in all cases: NCI anticancer screen, dose series, 48 h
[1] = test system: K-562 leukemia
[2] = test system: HOP-92 NSCLC
[3] = test system: EKVX NSCLC
[4] = test system: UACC-62 melanoma
[5] = test system: NCI-H522 lung
[6] = test system: HT29 colon
[7] = test system: OVCAR-5 ovarian
[8] = test system: HL-60(TB) leukemia
[9] = test system: HS 578T breast
[10] = test system: MCF7 breast

Compound | TGI [1] | TGI [2] | TGI [3] | TGI [4] | TGI [5] | TGI [6] | TGI [7] | TGI [8] | GI50 [1] | GI50 [2] | GI50 [3] | GI50 [4] | GI50 [5] | GI50 [9] | TGI [9] | GI50 [6] | GI50 [7] | GI50 [8] | GI50 [10] | TGI [10]
CC(=O)O[C@@H]1CC(C)C2CC2C2=C(C(O)OC2O)[C@@H]1C(C)CCC=C(C)C (stereo partly specified) | 66.9 µM | 35.5 µM | > 100 µM | 67.3 µM | 31.5 µM | 35.5 µM | 35.1 µM | 43.1 µM | – | – | – | – | – | – | – | – | – | – | – | –
Cc1cc2c(c(C#N)c1C)NC(=O)C(CC(=O)O)C2=O (stereo unspecified) | > 100 µM | > 100 µM | > 100 µM | > 100 µM | – | > 100 µM | > 100 µM | > 100 µM | – | – | – | – | – | – | – | – | – | – | – | –
COc1ccc2nc(NC(=O)C(=O)CC(=O)c3ccc(Cl)cc3)sc2c1 | – | > 100 µM | > 100 µM | > 100 µM | > 100 µM | > 100 µM | – | > 100 µM | – | – | – | – | – | – | – | – | – | – | – | –
Cc1ccc(S(=O)(=O)OCC23CCC(C4CC42)C2CC23)cc1 (stereo unspecified) | > 100 µM | > 100 µM | – | > 100 µM | – | > 100 µM | > 100 µM | 37.8 µM | – | – | – | – | – | – | – | – | – | – | – | –
CNS(=O)(=O)NN(C)S(=O)(=O)c1ccc(Br)cc1 | > 100 µM | – | > 100 µM | > 100 µM | > 100 µM | > 100 µM | – | > 100 µM | – | – | – | – | – | – | – | – | – | – | – | –
c1ccc2[nH]c(-c3ccc(OCCCCCOc4ccc(-c5nc6ccccc6[nH]5)cc4)cc3)nc2c1 | – | 10.1 µM | > 70.4 µM | 10.8 µM | 6.62 µM | 2.75 µM | 6.75 µM | 3.29 µM | 1.04 µM | 3.84 µM | 14.8 µM | 4.95 µM | 2.29 µM | 1.3 µM | 4.41 µM | 0.629 µM | 2.69 µM | 1.28 µM | – | –
CC(=O)OC[C@@H]1[C@H]2CC(=O)O[C@H]2C[C@H]1OC(C)=O | – | > 100 µM | > 100 µM | > 100 µM | > 100 µM | > 100 µM | > 100 µM | > 100 µM | – | – | – | – | – | – | – | – | – | – | – | –
CCCN(CCC)C(=O)Cc1c2n(c3ccccc13)Cc1ccccc1-2 | > 100 µM | 57.7 µM | > 100 µM | > 100 µM | > 100 µM | > 100 µM | – | > 100 µM | – | – | – | – | – | – | – | – | – | – | – | –
CC(=S)NNC(=O)c1ccncc1 | > 100 µM | > 100 µM | > 100 µM | > 100 µM | > 100 µM | > 100 µM | > 100 µM | > 100 µM | – | – | – | – | – | – | – | – | – | – | – | –
COc1ccc(C=NC23CC4CC(CC(C4)C2)C3)cc1 | > 100 µM | – | > 100 µM | > 100 µM | > 100 µM | > 100 µM | > 100 µM | > 100 µM | – | – | – | – | – | – | – | – | – | – | – | –
Clc1cc(Cl)cc(N2N=C(c3cccc(Nc4ccncc4)c3)CC2c2ccc(Br)cc2)c1 (stereo unspecified) | 5.69 µM | 2.94 µM | 3.2 µM | 3.13 µM | 3.88 µM | 3.66 µM | 2.92 µM | 6.08 µM | 2.26 µM | 1.48 µM | 1.6 µM | 1.68 µM | 1.88 µM | – | – | 1.87 µM | 1.55 µM | 2.44 µM | – | –
Cc1cc(N/N=C/c2nc(-c3ccccc3)oc2C)c2cc(Cl)ccc2n1 | – | 2.87 µM | 4.53 µM | 3.36 µM | – | 3.59 µM | 3.12 µM | – | – | 1.43 µM | 1.99 µM | 1.7 µM | – | – | – | 1.82 µM | 1.62 µM | – | 1.64 µM | 3.56 µM
O=C(O)c1ccc([N+](=O)[O-])c2c(=O)c3ccccc3[nH]c12 | > 100 µM | > 100 µM | – | > 100 µM | > 100 µM | > 100 µM | > 100 µM | > 100 µM | – | – | – | – | – | – | – | – | – | – | – | –
COc1ccc(/C=C2\CNC/C(=C\c3ccc(OC)cc3)C2=O)cc1 | 65.2 µM | > 100 µM | > 100 µM | > 100 µM | – | > 100 µM | > 100 µM | 38.5 µM | – | – | – | – | – | – | – | – | – | – | – | –
Cc1nn2c(/C=C3/C(=O)Nc4ccccc43)c(-c3ccc(Cl)cc3)nc2s1 | > 50 µM | – | > 50 µM | 21.4 µM | > 50 µM | 27 µM | – | – | > 50 µM | – | 20.3 µM | 10.2 µM | 46 µM | 27.7 µM | > 50 µM | 11.9 µM | – | – | 17.1 µM | > 50 µM
O=C1NC2(O)c3ccccc3C(=O)C2(O)N1c1ccccc1 (stereo unspecified) | > 100 µM | > 100 µM | > 100 µM | > 100 µM | > 100 µM | > 100 µM | > 100 µM | > 100 µM | – | – | – | – | – | – | – | – | – | – | – | –
C=CCN=C1N=C(CC(=O)OCC)CS1 | > 100 µM | > 100 µM | > 100 µM | > 100 µM | > 100 µM | > 100 µM | > 100 µM | > 100 µM | – | – | – | – | – | – | – | – | – | – | – | –
